From patent publication US7939509B2, “Partial and full agonists of A1 adenosine receptors” (Gilead Sciences, Inc., priority 2002, dated 2011)
Entries after “also recorded” stand apart in the source; their conditions may differ.

Legend:
awake rats = experiment: Insulin dose response to reduce FFA with and without Compound A in awake rats; format: in vivo, rat
Protocol: FIG. 6 graphically represents how Compound A potentates the effect of insulin in reducing FFA levels. Shown are the dose response curves for the effect of insulin to reduce FFA obtained in the absence and presence of Compound A (0.5 mg/kg) in awake rats. Both insulin and Compound A were given via IP injection. Each data point is the mean±SEM of the maximal (peak effect) percent decrease in FFA levels from baseline from three to five rats.
The anti-lipolytic effects of Compound A were studied in awake rats. Animals were fasted overnight before experimental use. On the day of the experiment, animals were put in metabolic cages and left undisturbed to acclimate to the environment for 1-2 hrs. An infusion set (21 G×¾″, 0.8×19 mm U.T.W., 3½″, 9 cm tubing, volume 0.15 ml) was connected to the arterial catheter for blood sampling. A 1% sodium citrate saline solution was used to flush the lines. A pre-treatment blood sample was obtained from each animal to determine baseline values for FFA and TG. Compound A was given via oral gavage, sc injection, iv injection, or iv infusion, as described, for each different series of experiments. Blood samples were collected into serum separator tubes (Becton Dickinson, Franklin Lakes, N.J.) at pre-determined times, Blood was allowed to clot, and then centrifuged at 8000 rpm for 4 min at 4° C. The serum was stored at −80° C. and was thawed at 4° C. for determinations of FFA and TG contents.
The effect of insulin (0.005-1 U/kg) to reduce serum FFA was determined in the absence and presence of a single dose (0.5 mg/kg) of Compound A (FIG. 6). Baseline FFA levels before insulin administration in vehicle and Compound A treated groups were 0.84±0.01 and 0.92±0.02 mM, respectively. […] The insulin dose response to reduce FFA levels was then repeated in the presence of Compound A (0.5 mg/kg). Compound A alone (0.5 mg/kg) caused an 18% decrease in FFA levels. The doses of insulin that cause 50% decrease (ED50) in FFA levels in the absence and presence of Compound A were 0.4 and 0.1 U/kg, respectively.

Sprague-Dawley rats = experiment: Acute effect on insulin, FFA and TG in rats fed chow or high fat diet for 2 weeks; format: in vivo, rat; settings: 1 mg/kg oral gavage, 4 hr fast
Protocol: FIG. 8 graphically illustrates the time-course of the effect of Compound A on serum (A) insulin, (B) free fatty acids (FFA), and (C) triglycerides (TG) in rats fed normal diet (ND) and high fat diet (HFD) for 2 weeks as discussed in Example 32. Animals were fasted for four hours before the experiment. Compound A was administered via oral gavage at a dose of 1 mg/kg. Values represent mean±SEM from number of animals indicated in the parenthesis for each group.
All experimental procedures were performed under a protocol approved by the IACUC (CV Therapeutics, Inc.) and in accordance with the recommendations set forth in the Guide for the Care and Use of Laboratory Animals published by the National Research Council. Male Sprague-Dawley rats (225-250 gm) with either one or two indwelling catheters (carotid and jugular) were obtained from Charles River Laboratories (Wilmington, Mass.). Animals were housed 1 per cage in a room maintained on a 12 h light/dark cycle (light on 06.00-18.00 h) under constant temperature (22-25° C.) and with ad libitum access to food and water. Rats on normal diet (Chow) were fed standard laboratory chow (12% fat, 60% carbohydrate, and 28% protein) throughout the study, while animals in the high fat (HF) diet group were given a diet (TD88137 from Harlan Teklad, Madison, Wis.) containing 42% fat, 43% carbohydrate, and 15% protein.
The anti-lipolytic effects of Compound A (see chemical name below) were studied in awake rats. On the day of the experiment, animals were put in metabolic cages and left undisturbed to acclimate to the environment for 1-2 hrs. An infusion set (21 G×¾″, 0.8×19 mm U.T.W., 3½″, 9 cm tubing, volume 0.15 ml) was connected to the arterial catheter for blood sampling. A 1% sodium citrate saline solution was used to flush the lines. A pre-treatment blood sample was obtained from each animal to determine baseline values for glucose, insulin, FFA and TG. Blood samples were collected into plasma and serum separator tubes (Becton Dickinson, Franklin Lakes, N.J.) at pre-determined time points. Oral glucose tolerance test (OGTT) was performed by giving 2 gm/kg of glucose load. Compound A was given via an oral gavage 15 minutes prior to the glucose load. For chronic experiments Compound A was administered twice a day via subcutaneous injection at a dose of 5 mg/kg for 2 weeks. An OGTT was performed at the end of two weeks at ˜2 hrs after the last dose of Compound A.
Compound A (2-{6-[((1R,2R)-2-hydroxycyclopentyl)amino]purin-9-yl}(4S,5S,2R,3R)-5-[(2-fluorophenylthio)methyl]oxolane-3,4-diol) was synthesized by the Department of Medicinal and Bio-Organic chemistry of CV Therapeutics, Inc. Sodium citrate was purchased from Sigma (St. Louis, Mo.). PEG 400 was purchased from VWR (by EMD Chemicals). Triton WR1339 was diluted in warm saline (˜37° C.) with frequent vortexing. Compound A was dissolved in. PEG 400, and then diluted with distilled water to make a 20% PEG drug solution. FFA and TGs were measured using commercial kits from Wako Chemicals, (Richmond, Va.). Glucose and Insulin were measured using commercial kits from Thermo Electron Corporation (Waltham, Mass.) and Crystal Chem (Downers Grove, Ill.), respectively.
All data are reported as mean±SEM. Statistical analysis of data from experiments with 2 treatment groups was performed using the unpaired Student's t-test. One way analysis of variance (ANOVA) followed by Newman-Keuls posthoc analysis was used for multiple comparisons. Data form OGTT was analyzed by calculating area under the curve (AUC) using prism graphpad software. Differences between/among treatment groups were considered to be significant when the probability of their occurrence by chance alone was <0.05.

rats fed high fat diet [1] = experiment: Chronic 2 week treatment: fasting glucose, insulin, FFA, TG in high fat diet rats; format: in vivo, rat; settings: 5 mg/kg SC for 2 weeks, HF rats
Protocol: Animals were fasted overnight before taking samples. Compound A was given via SC injection for 2 weeks at a dose of 5 mg/kg. Data is presented as mean±SEM from number of animals indicated below each bar. […] Male Sprague-Dawley rats (225-250 gm) with either one or two indwelling catheters (carotid and jugular) were obtained from Charles River Laboratories (Wilmington, Mass.). Animals were housed 1 per cage in a room maintained on a 12 h light/dark cycle (light on 06.00-18.00 h) under constant temperature (22-25° C.) and with ad libitum access to food and water. Rats on normal diet (Chow) were fed standard laboratory chow (12% fat, 60% carbohydrate, and 28% protein) throughout the study, while animals in the high fat (HF) diet group were given a diet (TD88137 from Harlan Teklad, Madison, Wis.) containing 42% fat, 43% carbohydrate, and 15% protein. The anti-lipolytic effects of Compound A (see chemical name below) were studied in awake rats. On the day of the experiment, animals were put in metabolic cages and left undisturbed to acclimate to the environment for 1-2 hrs. An infusion set (21 G×¾″, 0.8×19 mm U.T.W., 3½″, 9 cm tubing, volume 0.15 ml) was connected to the arterial catheter for blood sampling. A 1% sodium citrate saline solution was used to flush the lines. A pre-treatment blood sample was obtained from each animal to determine baseline values for glucose, insulin, FFA and TG. Blood samples were collected into plasma and serum separator tubes (Becton Dickinson, Franklin Lakes, N.J.) at pre-determined time points. […] For chronic experiments Compound A was administered twice a day via subcutaneous injection at a dose of 5 mg/kg for 2 weeks. […] Statistical analysis of data from experiments with 2 treatment groups was performed using the unpaired Student's t-test. One way analysis of variance (ANOVA) followed by Newman-Keuls posthoc analysis was used for multiple comparisons. […] Differences between/among treatment groups were considered to be significant when the probability of their occurrence by chance alone was <0.05.

rats fed high fat diet [2] = experiment: Oral glucose tolerance test after 2 week treatment in high fat diet rats; format: in vivo, rat; settings: 5 mg/kg SC twice a day for 2 weeks, HF rats
Protocol: Animals were fasted overnight before taking samples. Compound A was given twice daily via a SC injection for 2 weeks at a dose of 5 mg/kg. Data is presented as mean±SEM from number of animals indicated in the parenthesis for each group. […] All experimental procedures were performed under a protocol approved by the IACUC (CV Therapeutics, Inc.) and in accordance with the recommendations set forth in the Guide for the Care and Use of Laboratory Animals published by the National Research Council. Male Sprague-Dawley rats (225-250 gm) with either one or two indwelling catheters (carotid and jugular) were obtained from Charles River Laboratories (Wilmington, Mass.). Animals were housed 1 per cage in a room maintained on a 12 h light/dark cycle (light on 06.00-18.00 h) under constant temperature (22-25° C.) and with ad libitum access to food and water. Rats on normal diet (Chow) were fed standard laboratory chow (12% fat, 60% carbohydrate, and 28% protein) throughout the study, while animals in the high fat (HF) diet group were given a diet (TD88137 from Harlan Teklad, Madison, Wis.) containing 42% fat, 43% carbohydrate, and 15% protein. […] On the day of the experiment, animals were put in metabolic cages and left undisturbed to acclimate to the environment for 1-2 hrs. An infusion set (21 G×¾″, 0.8×19 mm U.T.W., 3½″, 9 cm tubing, volume 0.15 ml) was connected to the arterial catheter for blood sampling. A 1% sodium citrate saline solution was used to flush the lines. A pre-treatment blood sample was obtained from each animal to determine baseline values for glucose, insulin, FFA and TG. Blood samples were collected into plasma and serum separator tubes (Becton Dickinson, Franklin Lakes, N.J.) at pre-determined time points. Oral glucose tolerance test (OGTT) was performed by giving 2 gm/kg of glucose load. […] For chronic experiments Compound A was administered twice a day via subcutaneous injection at a dose of 5 mg/kg for 2 weeks. […] Data form OGTT was analyzed by calculating area under the curve (AUC) using prism graphpad software. […]

C57BL/J6 mice = experiment: Hyperinsulinemic euglycemic clamp in C57BL/J6 mice on high fat diet for 12 weeks; format: in vivo, mouse; settings: 2.5 mg/kg or 5.0 mg/kg ip 15 min prior to clamp
Protocol: C57BL/J6 mice were maintained on normal chow or a HF diet (Bovine Lard, 23 wt/wt %, 44 energy % provided by the lard) for 12 weeks to induce insulin resistance. At the end of 12 weeks a hyperinsulinemic euglycemic clamp analysis was performed to measure insulin sensitivity in the absence and presence of Compound A. Compound A was given via an ip injection 15 minutes before the clamp protocol was started. After an overnight fast, glucose turnover studies were performed as described previously (6; 11). Briefly, animals were anesthetized; an infusion needle was placed in one of the tail veins. Thereafter, a bolus of insulin was given and a hyperinsulinemic clamp was started by continuous infusion of insulin. Blood samples were taken every 10 minutes (tail bleeding) to monitor plasma glucose levels. A variable infusion of 12.5% D-glucose (in PBS) solution was started at time 0 and adjusted to maintain blood glucose at ˜6.0 mM. When steady state glucose levels were reached (approximately 1 hour after start of the insulin infusion) a final blood sample was taken (for measurement of plasma insulin) and the hyperinsulinemic euglycemic clamp was terminated.

## O[C@@H]1[C@H](O)[C@@H](CSc2ccccc2F)O[C@H]1n1cnc2c(N[C@@H]3CCC[C@H]3O)ncnc21 [Compound A, 2-{6-[((1R,2R)-2-hydroxycyclopentyl)amino]purin-9-yl}(4S,5S,2R,3R)-5-[(2-fluorophenylthio)methyl]oxolane-3,4-diol]
Awake rats; 0.5 mg/kg IP
  decrease in FFA levels by Compound A alone: 18%
Awake rats; Compound A 0.5 mg/kg
  leftward shift of the insulin dose-response to lower FFA: 4 fold
Sprague-Dawley rats; Chow rats
  decrease in FFA concentration from 0 to 30 min: 0.24 ± 0.07 mM
  decrease in TG concentration from 0 to 30 min: 17 ± 3 mg/dL
  decrease in insulin concentration from 0 to 30 min: 0.8 ± 0.32 ng/mL
Sprague-Dawley rats; HF rats
  decrease in FFA concentration from 0 to 30 min: 0.65 ± 0.1 mM
  decrease in TG concentration from 0 to 30 min: 46 ± 15 mg/dL
  decrease in insulin concentration from 0 to 30 min: 2.37 ± 0.85 ng/mL
Rats fed high fat diet [1]
  fasting FFA concentration vs placebo: significantly lower
  fasting TG concentration vs placebo: significantly lower
  fasting glucose concentration vs placebo: no significant differences
  fasting insulin concentration vs placebo: significantly lower
Rats fed high fat diet [2]
  glucose levels in OGTT: did not vary
  total integrated plasma insulin levels (AUC) in OGTT: significantly (p<0.05) lower
C57BL/J6 mice
  insulin-mediated glucose disposal / glucose infusion rate (GIR) vs untreated HF mice: significant differences (p<0.01); also recorded: significantly greater (p<0.01)
